This note sets out measurements from PubChem BioAssay AID651630 (Sanford-Burnham Center for Chemical Genomics, 2012).

Active and inactive are the calls of the source.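 How the source made its calls: active means lipid-stain IC50 at or below a set limit, with nuclear-stain toxicity IC50 at least five times higher; inactive means the rest.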

Assay [1] deals with DAPI. The assay can be described thus: triacylglycerol accumulation inhibitor potency, dose response, cell-based, panel, Nile Red and DAPI fluorescence, H9c2 (AID 651630).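 Further: cells exposed to compound overnight before fixation and staining.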 The conditions noted are these: H9c2 cells, DAPI nuclear fluorescence (cytotoxicity counter-readout), oleic acid.
Assay [2] concerns TAG. The description is as above. The conditions noted are these: H9c2 cells, Nile Red TAG fluorescence, oleic acid.

`CCCCCC(=C/c1ccccc1)/C=N/Nc1ccc(S(=O)(=O)N2CCOCC2)cc1[N+](=O)[O-]`: the IC50 cytotoxicity (DAPI nuclear signal decrease) in assay [1] (run 1) and in assay [1] (run 2) was greater than 25 µM each time. Besides, the results for the IC50 in assay [2] (mean of runs), in assay [2] (run 1) and in assay [2] (run 2) were 2.9 µM, 1.96 µM and 3.83 µM, respectively.

Regarding `CNCCCN1c2ccccc2CCc2ccccc21`, the IC50 cytotoxicity (DAPI nuclear signal decrease) in assay [1] (mean of runs) is > 25 µM (inactive); in assay [1] (run 1), greater than 25 µM; in assay [1] (run 2) it was greater than 25 µM. Moreover, the IC50 was > 25 µM (inactive) in assay [2] (mean of runs), greater than 25 µM in assay [2] (run 1) and greater than 25 µM in assay [2] (run 2).

On to `C[C@@H]1CN([C@H](C)CO)C(=O)c2cccc(NC(=O)Nc3ccc(C(F)(F)F)cc3)c2O[C@H]1CN(C)S(=O)(=O)c1cccs1`, for which the values for the IC50 cytotoxicity (DAPI nuclear signal decrease) in assay [1] (mean of runs), in assay [1] (run 1) and in assay [1] (run 2) were > 25 µM (inactive), greater than 25 µM and greater than 25 µM, respectively. For the same compound, the IC50 in assay [2] (mean of runs) was 15.9 µM (inactive); in assay [2] (run 1), 13.8 µM; in assay [2] (run 2) it was 18 µM.

With `COc1ccc(CCNc2nnc(Sc3nnnn3-c3ccccc3)s2)cc1OC`, the results for the IC50 cytotoxicity (DAPI nuclear signal decrease) in assay [1] (mean of runs), in assay [1] (run 1) and in assay [1] (run 2) were > 25 µM (inactive), greater than 25 µM and greater than 25 µM, respectively. For the same compound, the IC50 in assay [2] (run 1) is 10.3 µM; in assay [2] (run 2) it was greater than 25 µM.

On to `CC1(C(=O)NCc2ccco2)Cc2c(-c3ccc4c(c3)OCO4)ccnc2O1` (stereo not given), for which the IC50 cytotoxicity (DAPI nuclear signal decrease) was > 25 µM (inactive) in assay [1] (mean of runs), greater than 25 µM in assay [1] (run 1) and greater than 25 µM in assay [1] (run 2). Moreover, the IC50 in assay [2] (run 1) is 17.1 µM; in assay [2] (run 2), greater than 25 µM.

Regarding `CN(C)c1ncnc2c1ncn2C1OC(CO)C(O)C1O` (stereo not given), the IC50 cytotoxicity (DAPI nuclear signal decrease) was 12.8 µM (inactive) in assay [1] (mean of runs), 11 µM in assay [1] (run 1) and 14.5 µM in assay [1] (run 2). Besides, the IC50 in assay [2] (mean of runs) is > 25 µM (inactive); in assay [2] (run 1), greater than 25 µM; in assay [2] (run 2) it was greater than 25 µM.

As for `Cc1cccc2cc(C#N)c(SCC(=O)NNC(=O)Cc3ccccc3)nc12`, the IC50 cytotoxicity (DAPI nuclear signal decrease) was > 25 µM (inactive) in assay [1] (mean of runs), greater than 25 µM in assay [1] (run 1) and greater than 25 µM in assay [1] (run 2). Further, the results for the IC50 in assay [2] (mean of runs), in assay [2] (run 1) and in assay [2] (run 2) were > 25 µM (inactive), greater than 25 µM and greater than 25 µM, respectively.

`CCCCCCCC(=O)Nc1cc(C(=O)NCCC)ccc1N1CCC2(CC1)CC(c1cccc(Br)c1)=NO2`: the IC50 cytotoxicity (DAPI nuclear signal decrease) in assay [1] (mean of runs) is > 25 µM (inactive); in assay [1] (run 1), greater than 25 µM; in assay [1] (run 2), greater than 25 µM. Besides, the figures for the IC50 in assay [2] (mean of runs), in assay [2] (run 1) and in assay [2] (run 2) were 15.2 µM (inactive), 11.8 µM and 18.6 µM, respectively.

Turning to `COc1ccc(Oc2nc(-c3ccccn3)nc3ccccc23)cc1`, the IC50 cytotoxicity (DAPI nuclear signal decrease) is > 25 µM (inactive) in assay [1] (mean of runs), greater than 25 µM in assay [1] (run 1) and greater than 25 µM in assay [1] (run 2). The IC50 was > 25 µM (inactive) in assay [2] (mean of runs), greater than 25 µM in assay [2] (run 1) and greater than 25 µM in assay [2] (run 2).

In the case of `CC(=O)c1ccc(-c2cnc3c(NC=O)cc(-c4ccc(C(=O)NC5CC5)cc4)cn23)cc1`, the IC50 cytotoxicity (DAPI nuclear signal decrease) was > 25 µM (inactive) in assay [1] (mean of runs), greater than 25 µM in assay [1] (run 1) and greater than 25 µM in assay [1] (run 2). Further, the IC50 in assay [2] (mean of runs) is > 25 µM (inactive); in assay [2] (run 1), greater than 25 µM; in assay [2] (run 2), greater than 25 µM.

With `Cc1nc(C(=O)Nc2ccccc2Cl)cc2c1[nH]c1ccccc12`, the IC50 cytotoxicity (DAPI nuclear signal decrease) in assay [1] (run 1) and in assay [1] (run 2) was greater than 25 µM throughout. The IC50 was 3.06 µM in assay [2] (mean of runs), 2.87 µM in assay [2] (run 1) and 3.24 µM in assay [2] (run 2).

Take `CC(=O)Nc1ccc(NC2=Nc3ccccc3N3C2=Nc2c(c(C)nn2-c2ccccc2)C3c2ccccc2)cc1` (stereo not given): the figures for the IC50 cytotoxicity (DAPI nuclear signal decrease) in assay [1] (mean of runs), in assay [1] (run 1) and in assay [1] (run 2) were > 25 µM (inactive), greater than 25 µM and greater than 25 µM, respectively. Also, the IC50 in assay [2] (mean of runs) was > 25 µM (inactive); in assay [2] (run 1), greater than 25 µM; in assay [2] (run 2), greater than 25 µM.

As to `Cc1ccc(N2C(=O)C3CC(c4ccccc4)=C4C5C=CC(C6C(=O)N(c7ccc(C)cc7C)C(=O)C56)C4C3C2=O)c(C)c1` (stereo not given), the IC50 cytotoxicity (DAPI nuclear signal decrease) in assay [1] (mean of runs) is > 25 µM (inactive); in assay [1] (run 1), greater than 25 µM; in assay [1] (run 2), greater than 25 µM. Further, the IC50 is 22.3 µM in assay [2] (run 1) and greater than 25 µM in assay [2] (run 2).

For the compound `CCC(C)Nc1nc(-c2cccc(OC)c2O)nc2ccccc12` (stereo not given), the IC50 cytotoxicity (DAPI nuclear signal decrease) is > 25 µM (inactive) in assay [1] (mean of runs), greater than 25 µM in assay [1] (run 1) and greater than 25 µM in assay [1] (run 2). In addition, the values for the IC50 in assay [2] (mean of runs), in assay [2] (run 1) and in assay [2] (run 2) were > 25 µM (inactive), greater than 25 µM and greater than 25 µM, respectively.

Consider `Cc1ccc(-c2csc(NC(=O)CSc3nc4ccccc4c(=O)n3CCCN(C)C)n2)cc1`, for which the IC50 cytotoxicity (DAPI nuclear signal decrease) in assay [1] (mean of runs) is > 25 µM (inactive); in assay [1] (run 1), greater than 25 µM; in assay [1] (run 2), greater than 25 µM. In addition, the results for the IC50 in assay [2] (mean of runs), in assay [2] (run 1) and in assay [2] (run 2) were 7.04 µM, 7.46 µM and 6.62 µM, respectively.

With `COC(=O)C1=C(c2cc3ccccc3s2)C[C@@H]2CC[C@H]1N2C(=O)N1CCOCC1`, the IC50 cytotoxicity (DAPI nuclear signal decrease) in assay [1] (mean of runs) is > 25 µM (inactive); in assay [1] (run 1), greater than 25 µM; in assay [1] (run 2) it was greater than 25 µM. The IC50 was > 25 µM (inactive) in assay [2] (mean of runs), greater than 25 µM in assay [2] (run 1) and greater than 25 µM in assay [2] (run 2).

Turning to `CCCSc1nc(SCC(=O)NCc2ccccc2)c2c3c(sc2n1)COC(C)(CC)C3` (stereo not given), the IC50 cytotoxicity (DAPI nuclear signal decrease) in assay [1] (mean of runs) is > 25 µM (inactive); in assay [1] (run 1), greater than 25 µM; in assay [1] (run 2), greater than 25 µM. Moreover, the IC50 in assay [2] (mean of runs) is > 25 µM (inactive); in assay [2] (run 1) it was greater than 25 µM; in assay [2] (run 2), greater than 25 µM.

`CC(C)N(C(=O)[C@H]1C[C@H](CC(=O)NCc2cccc(C(F)(F)F)c2)C(=O)N2CCc3c([nH]c4ccc(Cl)cc34)[C@]12C)C(C)C`: the IC50 cytotoxicity (DAPI nuclear signal decrease) in assay [1] (mean of runs) was > 25 µM (inactive); in assay [1] (run 1) it was greater than 25 µM; in assay [1] (run 2), greater than 25 µM. In addition, the IC50 in assay [2] (mean of runs) is 10.6 µM; in assay [2] (run 1), 9.86 µM; in assay [2] (run 2), 11.4 µM.

For `Cc1ccccc1OCCNc1cc(N2CC(C)NC(C)C2)ccc1[N+](=O)[O-]` (stereo not given), the figures for the IC50 cytotoxicity (DAPI nuclear signal decrease) in assay [1] (mean of runs), in assay [1] (run 1) and in assay [1] (run 2) were > 25 µM (inactive), greater than 25 µM and greater than 25 µM, respectively. Moreover, the values for the IC50 in assay [2] (mean of runs), in assay [2] (run 1) and in assay [2] (run 2) were 13.1 µM, 14.6 µM and 11.6 µM, respectively.

For `COc1ccc(C2c3cc4c(cc3OC(N3CCOCC3)C2C)OCO4)c(OC)c1` (stereo not given), the IC50 cytotoxicity (DAPI nuclear signal decrease) in assay [1] (mean of runs) is > 25 µM (inactive); in assay [1] (run 1), greater than 25 µM; in assay [1] (run 2), greater than 25 µM. Besides, the IC50 is 10.1 µM in assay [2] (mean of runs), 6.4 µM in assay [2] (run 1) and 13.8 µM in assay [2] (run 2).

For `COc1cccc2sc(Nc3nc(-c4cc5ccccc5oc4=O)cs3)nc12`, the IC50 cytotoxicity (DAPI nuclear signal decrease) is > 25 µM (inactive) in assay [1] (mean of runs), greater than 25 µM in assay [1] (run 1) and greater than 25 µM in assay [1] (run 2). The IC50 in assay [2] (mean of runs) is 8.35 µM; in assay [2] (run 1), 7.33 µM; in assay [2] (run 2), 9.37 µM.

`COC(=O)/C=C/c1ccccc1S(=O)(=O)N(Cc1ccccc1)Cc1ccco1`: the IC50 cytotoxicity (DAPI nuclear signal decrease) was > 25 µM (inactive) in assay [1] (mean of runs), greater than 25 µM in assay [1] (run 1) and greater than 25 µM in assay [1] (run 2). Moreover, the IC50 was > 25 µM (inactive) in assay [2] (mean of runs), greater than 25 µM in assay [2] (run 1) and greater than 25 µM in assay [2] (run 2).

In the case of `O=C(/C=C/Sc1ccc(C(F)(F)F)cn1)c1ccccc1`, the IC50 cytotoxicity (DAPI nuclear signal decrease) was 21 µM in assay [1] (run 1) and greater than 25 µM in assay [1] (run 2). Further, the IC50 was > 25 µM (inactive) in assay [2] (mean of runs), greater than 25 µM in assay [2] (run 1) and greater than 25 µM in assay [2] (run 2).

For `CN(C)C(=O)c1cccc(-c2cnc3c(NC=O)cc(-c4ccc(C(=O)N5CCOCC5)cc4)cn23)c1`, the figures for the IC50 cytotoxicity (DAPI nuclear signal decrease) in assay [1] (mean of runs), in assay [1] (run 1) and in assay [1] (run 2) were > 25 µM (inactive), greater than 25 µM and greater than 25 µM, respectively. For the same compound, the results for the IC50 in assay [2] (mean of runs), in assay [2] (run 1) and in assay [2] (run 2) were 8.71 µM, 3.47 µM and 13.9 µM, respectively.

On to `Cc1cccc(N2CCN(C(=O)c3c(-c4ccccc4Cl)noc3C)CC2)c1C`, for which the IC50 cytotoxicity (DAPI nuclear signal decrease) was > 25 µM (inactive) in assay [1] (mean of runs), greater than 25 µM in assay [1] (run 1) and greater than 25 µM in assay [1] (run 2). The results for the IC50 in assay [2] (mean of runs), in assay [2] (run 1) and in assay [2] (run 2) were 16.3 µM (inactive), 16.5 µM and 16 µM, respectively.

As for `COc1ccc([C@H]2CC(=O)C=C(c3ccc(OC)cc3OC)C2)cc1`, the IC50 cytotoxicity (DAPI nuclear signal decrease) is > 25 µM (inactive) in assay [1] (mean of runs), greater than 25 µM in assay [1] (run 1) and greater than 25 µM in assay [1] (run 2). The IC50 was > 25 µM (inactive) in assay [2] (mean of runs), greater than 25 µM in assay [2] (run 1) and greater than 25 µM in assay [2] (run 2).
